The text below walks through data of paper PMC11111691, “Cystine-knot peptide inhibitors of HTRA1 bind to a cryptic pocket within the active site region” (Nature Communications, 2024).

Positions of bridges follow the written chain, without caps; N, C: chain ends. Residues, ends and D or L forms follow the SMILES beside them.

The target of the experiment is T1, HTRA1^FL (Homo sapiens, UniProt Q92743).
T1 construct: Human full-length HTRA1 (HTRA1^FL, Q23-P480); made in house; host or cells: Trichoplusia ni cells
The experiment in a line: HTRA1^FL enzyme inhibition assay with synthetic substrate H2-OPT. It is filed as biochemical. The protocol: Assays with the fluorescence-quenched synthetic substrate Mca-IRRVSYSFK(Dnp)K (H2-OPT)[38],[60] were carried out essentially as described. CKP stock solutions in DMSO were diluted in TNC buffer (dilution series for IC50 determinations, or final concentration of 2 µM for selectivity assay or as indicated for HTRA1/4 mutants) and incubated with enzymes in 96-well black optical bottom plates for 60 min at 37 °C. For selectivity experiments we used the 7mer-ABP as inhibitor, which was incubated with the proteases for 15 min at 37 °C. A 10 mM stock solution of H2-OPT in DMSO was diluted with water, prewarmed at 37 °C and then added to the CKP-enzyme mixtures. The final concentrations in the reaction mixtures were: 1 nM HTRA1^FL, 3 nM HTRA1^PD/PDZ, 1 nM HTRA1^PD, 1 nM HTRA2^PD/PDZ, 3 nM HTRA3^FL, 60 nM HTRA3^PD/PDZ, 6 nM HTRA4^FL, 1 µM HTRA4^PD/PDZ, 1 nM mouse HTRA1^PD, 25 nM HTRA1^PD-A202Y, 1 µM HTRA4^PD/PDZ-Y200A, 0.5 mM 7mer-ABP, 5 µM H2-OPT, and 0.25% DMSO. The kinetics of substrate cleavage was measured at 37 °C on a SpectraMax M5 microplate reader with excitation of 328 nm and emission of 393 nm. The determined initial rates of cleavage were expressed as percent of control (DMSO control) after subtracting the baseline rates (without enzyme). IC50 values were determined by Sigmoidal 4PL modeling of multiple data points from serial dilutions of CKPs using Prism 9 software (GraphPad). For selectivity assays with HTRA1-4^PD/PDZ constructs, the specific activities of the enzymes and enzyme:CKP inhibitor ratios were as follows: HTRA1^PD/PDZ, 12560 mRFU/min/nM – 1:667; HTRA2^PD/PDZ, 32300 mRFU/min/nM – 1:2000; HTRA3^PD/PDZ, 962 mRFU/min/nM – 1:33; HTRA4^PD/PDZ, 18 mRFU/min/nM – 1:2.

T1 sequence (Q92743 23-480): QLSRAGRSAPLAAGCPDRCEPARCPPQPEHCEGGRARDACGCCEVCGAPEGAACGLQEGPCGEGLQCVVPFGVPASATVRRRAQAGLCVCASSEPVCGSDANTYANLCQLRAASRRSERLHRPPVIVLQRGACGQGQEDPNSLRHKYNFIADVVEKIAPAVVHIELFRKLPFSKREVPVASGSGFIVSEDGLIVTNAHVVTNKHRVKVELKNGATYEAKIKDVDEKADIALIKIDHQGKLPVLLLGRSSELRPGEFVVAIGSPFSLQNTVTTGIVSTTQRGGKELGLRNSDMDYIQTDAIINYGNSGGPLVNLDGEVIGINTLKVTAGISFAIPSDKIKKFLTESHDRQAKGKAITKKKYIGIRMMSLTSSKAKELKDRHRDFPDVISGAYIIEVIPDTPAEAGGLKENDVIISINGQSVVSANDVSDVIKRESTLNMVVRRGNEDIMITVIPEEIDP

Usually IC50 stands for the concentration that gives 50% inhibition. The compound `CC[C@H](C)[C@H](NC(=O)[C@H](CCC(N)=O)NC(=O)[C@H](CCCNC(=N)N)NC(=O)[C@H](CC(C)C)NC(=O)CNC(=O)[C@H](Cc1c[nH]c2ccccc12)NC(=O)CNC(=O)[C@@H]1CSSC[C@@H]2NC(=O)[C@H](CC(=O)O)NC(=O)[C@H](CC(=O)O)NC(=O)[C@H](Cc3c[nH]cn3)NC(=O)[C@H]([C@@H](C)O)NC(=O)[C@H](CC(=O)O)NC(=O)[C@@H]3CSSC[C@H](NC(=O)[C@H]([C@@H](C)O)NC(=O)[C@H](CCC(N)=O)NC(=O)[C@H](CSSC[C@H](NC(=O)[C@@H](NC(=O)[C@@H]4CCCN4C(=O)[C@H](CC(=O)O)NC(=O)[C@H](C)NC(=O)[C@@H](N)Cc4c[nH]cn4)[C@@H](C)CC)C(=O)N[C@@H](CC(N)=O)C(=O)N[C@@H](CCCCN)C(=O)N4CCC[C@H]4C(=O)N3)NC(=O)[C@H](Cc3ccccc3)NC(=O)[C@H](Cc3c[nH]c4ccccc34)NC(=O)[C@H](C)NC(=O)CNC(=O)[C@H](CO)NC2=O)C(=O)N[C@@H](Cc2ccc(O)cc2)C(=O)N[C@@H](Cc2ccc(O)cc2)C(=O)N[C@@H](C)C(=O)N[C@@H]([C@@H](C)O)C(=O)N[C@@H](Cc2c[nH]c3ccccc23)C(=O)N[C@@H](CO)C(=O)N1)C(=O)N[C@@H](CC(=O)O)C(N)=O` [1A8.K11D] (H-HADPICNKPCDTHDDCSGAWFCQTCYYATWSCGWGLRQID-NH2; disulfide 6-22, 10-25, 16-32) returned an IC50 of 1.2 ± 0.4 nM. As for `CC[C@H](C)[C@H](NC(=O)[C@H](CCC(N)=O)NC(=O)[C@H](CCCNC(=N)N)NC(=O)[C@H](CC(C)C)NC(=O)CNC(=O)[C@H](Cc1c[nH]c2ccccc12)NC(=O)CNC(=O)[C@@H]1CSSC[C@@H]2NC(=O)[C@H](CC(=O)O)NC(=O)[C@H](CC(=O)O)NC(=O)[C@H](Cc3c[nH]cn3)NC(=O)[C@H]([C@@H](C)O)NC(=O)[C@H](CCC(=O)O)NC(=O)[C@@H]3CSSC[C@H](NC(=O)[C@H]([C@@H](C)O)NC(=O)[C@H](CCC(N)=O)NC(=O)[C@H](CSSC[C@H](NC(=O)[C@@H](NC(=O)[C@@H]4CCCN4C(=O)[C@H](CC(=O)O)NC(=O)[C@H](C)NC(=O)[C@@H](N)Cc4c[nH]cn4)[C@@H](C)CC)C(=O)N[C@@H](CC(N)=O)C(=O)N[C@@H](CCCCN)C(=O)N4CCC[C@H]4C(=O)N3)NC(=O)[C@H](Cc3ccccc3)NC(=O)[C@H](Cc3c[nH]c4ccccc34)NC(=O)[C@H](C)NC(=O)CNC(=O)[C@H](CO)NC2=O)C(=O)N[C@@H](Cc2ccc(O)cc2)C(=O)N[C@@H](Cc2ccc(O)cc2)C(=O)N[C@@H](C)C(=O)N[C@@H]([C@@H](C)O)C(=O)N[C@@H](Cc2c[nH]c3ccccc23)C(=O)N[C@@H](CO)C(=O)N1)C(=O)N[C@@H](CC(=O)O)C(N)=O` [1A8.K11E] (H-HADPICNKPCETHDDCSGAWFCQTCYYATWSCGWGLRQID-NH2; disulfide 6-22, 10-25, 16-32), the figure is 1 ± 0.3 nM; as for `CC[C@H](C)[C@H](NC(=O)[C@H](CCC(N)=O)NC(=O)[C@H](CCCNC(=N)N)NC(=O)[C@H](CC(C)C)NC(=O)CNC(=O)[C@H](Cc1c[nH]c2ccccc12)NC(=O)CNC(=O)[C@@H]1CSSC[C@@H]2NC(=O)[C@H](CC(=O)O)NC(=O)[C@H](CC(=O)O)NC(=O)[C@H](Cc3c[nH]cn3)NC(=O)[C@H]([C@@H](C)O)NC(=O)[C@H](CCCCN)NC(=O)[C@@H]3CSSC[C@H](NC(=O)[C@H]([C@@H](C)O)NC(=O)[C@H](CCC(N)=O)NC(=O)[C@H](CSSC[C@H](NC(=O)[C@@H](NC(=O)[C@@H]4CCCN4C(=O)[C@H](CC(=O)O)NC(=O)[C@H](C)NC(=O)[C@@H](N)Cc4c[nH]cn4)[C@@H](C)CC)C(=O)NCC(=O)N[C@@H](CO)C(=O)N[C@@H](CCC(N)=O)C(=O)N3)NC(=O)[C@H](Cc3ccccc3)NC(=O)[C@H](Cc3c[nH]c4ccccc34)NC(=O)[C@H](C)NC(=O)CNC(=O)[C@H](CO)NC2=O)C(=O)N[C@@H](Cc2ccc(O)cc2)C(=O)N[C@@H](Cc2ccc(O)cc2)C(=O)N[C@@H](C)C(=O)N[C@@H]([C@@H](C)O)C(=O)N[C@@H](Cc2c[nH]c3ccccc23)C(=O)N[C@@H](CO)C(=O)N1)C(=O)N[C@@H](CC(=O)O)C(N)=O` [1A8.L1.1] (H-HADPICGSQCKTHDDCSGAWFCQTCYYATWSCGWGLRQID-NH2; disulfide 6-22, 10-25, 16-32), 2.3 ± 0.1 nM; as for `CC[C@H](C)[C@H](NC(=O)[C@H](CCC(N)=O)NC(=O)[C@H](CCCNC(=N)N)NC(=O)[C@H](CC(C)C)NC(=O)CNC(=O)[C@H](Cc1c[nH]c2ccccc12)NC(=O)CNC(=O)[C@@H]1CSSC[C@@H]2NC(=O)[C@H](CC(=O)O)NC(=O)[C@H](CC(=O)O)NC(=O)[C@H](Cc3c[nH]cn3)NC(=O)[C@H]([C@@H](C)O)NC(=O)[C@H](CCCCN)NC(=O)[C@@H]3CSSC[C@H](NC(=O)[C@H]([C@@H](C)O)NC(=O)[C@H](CCC(N)=O)NC(=O)[C@H](CSSC[C@H](NC(=O)[C@@H](NC(=O)[C@@H]4CCCN4C(=O)[C@H](CC(=O)O)NC(=O)[C@H](C)NC(=O)[C@@H](N)Cc4c[nH]cn4)[C@@H](C)CC)C(=O)NCC(=O)N[C@@H](Cc4c[nH]cn4)C(=O)N[C@@H](CCC(N)=O)C(=O)N3)NC(=O)[C@H](Cc3ccccc3)NC(=O)[C@H](Cc3c[nH]c4ccccc34)NC(=O)[C@H](C)NC(=O)CNC(=O)[C@H](CO)NC2=O)C(=O)N[C@@H](Cc2ccc(O)cc2)C(=O)N[C@@H](Cc2ccc(O)cc2)C(=O)N[C@@H](C)C(=O)N[C@@H]([C@@H](C)O)C(=O)N[C@@H](Cc2c[nH]c3ccccc23)C(=O)N[C@@H](CO)C(=O)N1)C(=O)N[C@@H](CC(=O)O)C(N)=O` [1A8.L1.2] (H-HADPICGHQCKTHDDCSGAWFCQTCYYATWSCGWGLRQID-NH2; disulfide 6-22, 10-25, 16-32), 3.2 ± 0.1 nM. As for `CC[C@H](C)[C@H](NC(=O)[C@H](CCC(N)=O)NC(=O)[C@H](CCCNC(=N)N)NC(=O)[C@H](CC(C)C)NC(=O)CNC(=O)[C@H](Cc1c[nH]c2ccccc12)NC(=O)CNC(=O)[C@@H]1CSSC[C@@H]2NC(=O)[C@H](CC(=O)O)NC(=O)[C@H](CC(=O)O)NC(=O)[C@H](Cc3c[nH]cn3)NC(=O)[C@H]([C@@H](C)O)NC(=O)[C@H](CCCCN)NC(=O)[C@@H]3CSSC[C@H](NC(=O)[C@H]([C@@H](C)O)NC(=O)[C@H](CCC(N)=O)NC(=O)[C@H](CSSC[C@H](NC(=O)[C@@H](NC(=O)[C@@H]4CCCN4C(=O)[C@H](CC(=O)O)NC(=O)[C@H](C)NC(=O)[C@@H](N)Cc4c[nH]cn4)[C@@H](C)CC)C(=O)N[C@@H](CC(N)=O)C(=O)N[C@@H](CCCCN)C(=O)N4CCC[C@H]4C(=O)N3)NC(=O)[C@H](Cc3ccccc3)NC(=O)[C@H](Cc3c[nH]c4ccccc34)NC(=O)[C@H](C)NC(=O)CNC(=O)[C@H](CO)NC2=O)C(=O)N[C@@H](Cc2ccc(O)cc2)C(=O)N[C@@H](Cc2ccc(O)cc2)C(=O)N[C@@H](C)C(=O)N[C@@H](CC(N)=O)C(=O)N[C@@H](Cc2c[nH]c3ccccc23)C(=O)N[C@@H](CO)C(=O)N1)C(=O)N[C@@H](CC(=O)O)C(N)=O` [1A8.L5.1] (H-HADPICNKPCKTHDDCSGAWFCQTCYYANWSCGWGLRQID-NH2; disulfide 6-22, 10-25, 16-32), the figure is 1 ± 0.1 nM; as for `CC[C@H](C)[C@H](NC(=O)[C@H](CCC(N)=O)NC(=O)[C@H](CCCNC(=N)N)NC(=O)[C@H](CC(C)C)NC(=O)CNC(=O)[C@H](Cc1c[nH]c2ccccc12)NC(=O)CNC(=O)[C@@H]1CSSC[C@@H]2NC(=O)[C@H](CC(=O)O)NC(=O)[C@H](CC(=O)O)NC(=O)[C@H](Cc3c[nH]cn3)NC(=O)[C@H]([C@@H](C)O)NC(=O)[C@H](CCCCN)NC(=O)[C@@H]3CSSC[C@H](NC(=O)[C@H]([C@@H](C)O)NC(=O)[C@H](CCC(N)=O)NC(=O)[C@H](CSSC[C@H](NC(=O)[C@@H](NC(=O)[C@@H]4CCCN4C(=O)[C@H](CC(=O)O)NC(=O)[C@H](C)NC(=O)[C@@H](N)Cc4c[nH]cn4)[C@@H](C)CC)C(=O)N[C@@H](CC(N)=O)C(=O)N[C@@H](CCCCN)C(=O)N4CCC[C@H]4C(=O)N3)NC(=O)[C@H](Cc3ccccc3)NC(=O)[C@H](Cc3c[nH]c4ccccc34)NC(=O)[C@H](C)NC(=O)CNC(=O)[C@H](CO)NC2=O)C(=O)N[C@@H](Cc2ccc(O)cc2)C(=O)N[C@@H](Cc2ccc(O)cc2)C(=O)N[C@@H](C)C(=O)N[C@@H](CO)C(=O)N[C@@H](Cc2c[nH]c3ccccc23)C(=O)N[C@@H](CO)C(=O)N1)C(=O)N[C@@H](CC(=O)O)C(N)=O` [1A8.L5.2] (H-HADPICNKPCKTHDDCSGAWFCQTCYYASWSCGWGLRQID-NH2; disulfide 6-22, 10-25, 16-32), 2 ± 0.2 nM.
